Test results taken from the supplement of paper PMC13380429.
± gives the standard deviation of the averaged measurements.

Assays:
Conditions in all cases: 72 h
[1] = tested on: Caco-2; assay: cell viability relative to DMSO; higher = less toxic
[2] = tested on: Calu-3; assay: as above
[3] = tested on: HepG2; assay: as above
[4] = tested on: U2OS; assay: as above
[5] = tested on: Vero E6; assay: as above
[6] = tested on: Caco-2; assay: relative viability EC50 (midpoint between 100% and the lowest measured viability); higher = less toxic
[7] = tested on: Calu-3; assay: as above
[8] = tested on: HepG2; assay: as above
[9] = tested on: U2OS; assay: as above
[10] = tested on: Vero E6; assay: as above
[11] = tested on: Caco-2; assay: drug sensitivity score (DSS) for viability; higher = more toxic; extreme values may be limits of the assay
[12] = tested on: Calu-3; assay: as above
[13] = tested on: HepG2; assay: as above
[14] = tested on: U2OS; assay: as above
[15] = tested on: Vero E6; assay: as above

SMILES | cell viability ([1]; 1 nM) [%] | cell viability ([1]; 10 nM) [%] | cell viability ([1]; 100 nM) [%] | cell viability ([1]; 1000 nM) [%] | cell viability ([1]; 10000 nM) [%] | cell viability ([2]; 1 nM) [%] | cell viability ([2]; 10 nM) [%] | cell viability ([2]; 100 nM) [%] | cell viability ([2]; 1000 nM) [%] | cell viability ([2]; 10000 nM) [%] | cell viability ([3]; 1 nM) [%] | cell viability ([3]; 10 nM) [%] | cell viability ([3]; 100 nM) [%] | cell viability ([3]; 1000 nM) [%] | cell viability ([3]; 10000 nM) [%] | cell viability ([4]; 1 nM) [%] | cell viability ([4]; 10 nM) [%] | cell viability ([4]; 100 nM) [%] | cell viability ([4]; 1000 nM) [%] | cell viability ([4]; 10000 nM) [%] | cell viability ([5]; 1 nM) [%] | cell viability ([5]; 10 nM) [%] | cell viability ([5]; 100 nM) [%] | cell viability ([5]; 1000 nM) [%] | cell viability ([5]; 10000 nM) [%] | relative viability EC50 [6] [µM] | relative viability EC50 [7] [µM] | relative viability EC50 [8] [µM] | relative viability EC50 [9] [µM] | relative viability EC50 [10] [µM] | drug sensitivity score [11] | drug sensitivity score [12] | drug sensitivity score [13] | drug sensitivity score [14] | drug sensitivity score [15]
CCc1ccc(C(=O)C(C)CN2CCCCC2)cc1 (stereo not given) [eperisone] | 98.6 | 106 | 91.7 | 102 | 98.5 | 103 | 93.7 | 87.5 | 101 | 88.8 | 107 | 95.5 | 95.8 | 95.4 | 100 | 93.6 | 102 | 96.2 | 99.9 | 94.9 | 105 | 99.7 | 106 | 103 | 105 | > 10 | > 10 | > 10 | > 10 | > 10 | 0 | 0 | 0 | 0 | 0
COc1ccc(-c2cnc3c(-c4cccc5ncccc45)cnn3c2)cc1 [ML347] | 107 ± 14 | 100 ± 5.3 | 96.5 ± 2 | 96.05 ± 0.35 | 98.9 ± 8.6 | 106 ± 9.3 | 101 ± 7.9 | 99.5 ± 2.8 | 101 ± 4.9 | 93.4 ± 8.5 | 105 ± 4 | 96 ± 9.3 | 99.3 ± 3.2 | 98.1 ± 0.57 | 97.2 ± 6.9 | 101 ± 2 | 100 ± 3.1 | 105 ± 6.3 | 102 ± 1.8 | 96.8 ± 4.3 | 102 | 100 | 99 | 99.3 | 105 | > 10 | > 10 | > 10 | > 10 | > 10 | 0 | 0.1 ± 0.14 | 0 | 0 | 0
COC(=O)C(Cc1ccc(OCCn2c(=O)sc3cc(C(=O)c4ccccc4)ccc32)cc1)C(=O)OC | 100 | 93 | 101 | 109 | 101 | 94.4 | 109 | 97.7 | 104 | 118 | 95.5 | 101 | 98.7 | 95.1 | 102 | 100 | 95.1 | 95.6 | 106 | 105 | 93.7 | 96.7 | 89.2 | 81.6 | 85.5 | > 10 | > 10 | > 10 | > 10 | > 10 | 0 | 0 | 0 | 0 | 2.1
